Reference: US4330529A, “Antibacterial composition” (Fujisawa Pharmaceutical Co., Ltd., priority 1979, dated 1982)
In brackets after ≈: the same amount, converted by molar mass. Like-named read-outs stand apart in the source and are kept apart here.

Assays:
[1] = test system: Escherichia coli No.14; experiment: MIC and FIC, Nutrient agar, multiple inoculator (Test 4); format: cell-based; conditions: E. coli No.14, 10^8 cells/ml, 20 h
Experimental: (§1) After the incubation was carried out at 37° C. for 20 hours, MIC values were determined.

[2] = test system: Pseudomonas aeruginosa No.7; experiment: as above; format: cell-based; conditions: P. aeruginosa No.7, 10^8 cells/ml, 20 h
Experimental: as §1
(§2) FIC values and FIC Index were calculated in substantially the same manner as described in Test 1.

[3] = test system: Pseudomonas aeruginosa No.9; experiment: as above; format: cell-based; conditions: P. aeruginosa No.9, 10^8 cells/ml, 20 h
Experimental: as §1, §2

[4] = test system: Pseudomonas aeruginosa No.15; experiment: as above; format: cell-based; conditions: P. aeruginosa No.15, 10^8 cells/ml, 20 h
Experimental: as §1, §2

[5] = test system: Pseudomonas aeruginosa No.5; experiment: MIC and FIC, Nutrient agar, multiple inoculator (Tests 4, 5); format: cell-based; conditions: P. aeruginosa No.5, 10^8 cells/ml, 20 h
Experimental: as §1

[6] = test system: Pseudomonas aeruginosa No.14; experiment: MIC and FIC, Nutrient agar, multiple inoculator (Test 4); format: cell-based; conditions: P. aeruginosa No.14, 10^8 cells/ml, 20 h
Experimental: as §1, §2

[7] = test system: Escherichia coli 82; experiment: MIC and FIC, Nutrient agar (Test 7); format: cell-based; conditions: E. coli 82, 18 h
Experimental: as §2

[8] = test system: Staphylococcus aureus 2; experiment: MIC and FIC, Nutrient agar (Test 7); format: cell-based; conditions: S. aureus 2, 18 h
Experimental: as §2

[9] = test system: Proteus vulgaris 7; experiment: MIC and FIC, Nutrient agar (Tests 7, 9); format: cell-based; conditions: Proteus vulgaris, 7, 18 h, P. vulgaris 7
[10] = test system: Enterobacter aerogenes 25; experiment: microbe, parasite or virus in culture; conditions: Klebsiella aerogenes, 25, 18 h
[11] = test system: Citrobacter freundii 35; experiment: MIC and FIC, Nutrient agar (Tests 6, 7, 9); format: cell-based; conditions: C. freundii 35, 18 h
[12] = test system: Pseudomonas aeruginosa 77; experiment: MIC and FIC, Nutrient agar (Test 7); format: cell-based; conditions: P. aeruginosa 77, 18 h
Experimental: as §2

[13] = test system: Proteus mirabilis 48; experiment: MIC and FIC, Nutrient agar (Test 7); format: cell-based; conditions: P. mirabilis 48, 18 h
Experimental: as §2

[14] = test system: Staphylococcus aureus 1; experiment: MIC and FIC, Nutrient agar (Test 7); format: cell-based; conditions: S. aureus 1, 18 h
Experimental: as §2

[15] = test system: Pseudomonas aeruginosa 42; experiment: MIC and FIC, Nutrient agar (Test 7); format: cell-based
Experimental: as §2

[16] = test system: Proteus mirabilis 5; experiment: MIC and FIC, Nutrient agar (Test 7); format: cell-based; conditions: P. mirabilis 5, 18 h
Experimental: as §2

[17] = test system: Enterobacter aerogenes 7; experiment: MIC and FIC, Nutrient agar (Tests 6, 7, 9); format: cell-based; conditions: E. aerogenes 7, 18 h
Experimental: as §2

[18] = test system: Serratia marcescens 27; experiment: MIC and FIC, Nutrient agar (Test 7); format: cell-based; conditions: S. marcescens 27, 18 h
Experimental: as §2

[19] = test system: Escherichia coli 116; experiment: MIC and FIC, Nutrient agar (Test 7); format: cell-based; conditions: E. coli 116, 18 h
Experimental: as §2

[20] = test system: Enterobacter cloacae 18; experiment: MIC and FIC, Nutrient agar (Tests 7, 9); format: cell-based; conditions: Enterobacter cloacae, 18, 18 h, E. cloacae 18, read-out: MIC
Experimental: as §2

[21] = test system: Citrobacter freundii 63; experiment: MIC and FIC, Nutrient agar (Test 9); format: cell-based; conditions: C. freundii 63, 18 h
Experimental: as §2

[22] = test system: Serratia marcescens 4; experiment: MIC and FIC, Nutrient agar (Test 9); format: cell-based; conditions: S. marcescens 4, 18 h
Experimental: as §2

[23] = test system: Proteus vulgaris 22; experiment: MIC and FIC, Nutrient agar (Test 9); format: cell-based; conditions: P. vulgaris 22, 18 h
Experimental: as §2

[24] = test system: Pseudomonas aeruginosa No.11; experiment: MIC and FIC, Nutrient agar, multiple inoculator (Test 5); format: cell-based; conditions: P. aeruginosa No.11; 10^8 cells/ml, 20 h
Experimental: as §1, §2

[25] = test system: Klebsiella pneumoniae 8; experiment: Isobologram, growth in Nutrient broth in various combination ratios (Test 8); format: cell-based; set-up: key: +: the test microorganism grew; -: the test microorganism did not grow; conditions: phosphonic acid salt 0
Experimental: After the incubation was carried out at 37° C. for 18 hours, the growth of the test organism was observed.

[26] = test system: Pseudomonas aeruginosa No.13; experiment: MIC and FIC, Nutrient agar, multiple inoculator (Test 5); format: cell-based; conditions: P. aeruginosa No.13; 10^8 cells/ml, 20 h
Experimental: as §1, §2

[27] = test system: Staphylococcus aureus 3; experiment: MIC and FIC, Nutrient agar (Tests 6, 7); format: cell-based; conditions: S. aureus 3; 18 h
Experimental: as §2

[28] = test system: Pseudomonas aeruginosa No.12; experiment: MIC and FIC, Nutrient agar, multiple inoculator (Test 5); format: cell-based; conditions: P. aeruginosa No.12; 10^8 cells/ml, 20 h
Experimental: as §1, §2

[29] = test system: Escherichia coli 99; experiment: MIC and FIC, Nutrient agar (Test 6); conditions: E. coli 99; 18 h
Experimental: as §2

[30] = test system: Pseudomonas aeruginosa No.18; experiment: MIC and FIC, Nutrient agar, multiple inoculator (Test 5); format: cell-based; conditions: P. aeruginosa No.18; 10^8 cells/ml, 20 h
Experimental: as §1, §2

[31] = test system: Serratia marcescens 9; experiment: MIC and FIC, Nutrient agar (Test 6); format: cell-based; conditions: S. marcescens 9; 18 h
Experimental: as §2

[32] = test system: Proteus vulgaris 5; experiment: MIC and FIC, Nutrient agar (Test 6); format: cell-based; conditions: P. vulgaris 5; 18 h
Experimental: as §2

[33] = Klebsiella aerogenes, read-out: MIC

Compound: CC1(C)S[C@@H]2[C@H](NC(=O)C(C(=O)O)c3ccccc3)C(=O)N2[C@H]1C(=O)O (some centres unmarked) [B (Table 6), carbenicillin]
- MIC [1]: 12.5 µg/mL
- MIC [2]: > 800 µg/mL
- MIC [3]: > 800 µg/mL
- MIC [4]: 800 µg/mL
- MIC ([5]; Pseudomonas aeruginosa, read-out: MIC): 50 µg/mL
- MIC [6]: > 800 µg/mL

Compound: NC[C@@H]1CC[C@@H](N)[C@@H](O[C@H]2[C@H](O)[C@@H](O[C@H]3O[C@H](CO)[C@@H](O)[C@H](N)[C@H]3O)[C@H](N)C[C@@H]2N)O1 [B (Table 10), dibekacin]
- MIC [7]: 6.25 µg/mL
- MIC [8]: 1.56 µg/mL
- MIC [9]: 50 µg/mL
- MIC [10]: 6.25 µg/mL (≈ 13.8 µM)
- MIC ([11]; Citrobacter freundii, 35, 18 h): 6.25 µg/mL
- MIC [12]: 3.13 µg/mL
- MIC [13]: 12.5 µg/mL

Compound: NCC[C@H](O)C(=O)N[C@@H]1C[C@H](N)[C@@H](O[C@H]2O[C@H](CN)[C@@H](O)[C@H](O)[C@H]2O)[C@H](O)[C@H]1O[C@H]1O[C@H](CO)[C@@H](O)[C@H](N)[C@H]1O [B (Table 11), amikacin]
- MIC [14]: 0.78 µg/mL
- MIC ([15]; Pseudomonas aeruginosa, P. aeruginosa 42, 18 h, read-out: MIC): 6.25 µg/mL
- MIC [16]: 3.13 µg/mL
- MIC [17, 33]: 6.25 µg/mL
- MIC [18]: 12.5 µg/mL

Compound: NC[C@H]1O[C@H](O[C@H]2[C@H](O)[C@@H](O[C@H]3O[C@H](CO)[C@@H](O)[C@H](N)[C@H]3O)[C@H](N)C[C@@H]2N)[C@H](N)[C@@H](O)[C@@H]1O [B (Table 12), bekanamycin]
- MIC ([15]; Pseudomonas aeruginosa, 42, 18 h): 100 µg/mL
- MIC [17, 33]: 6.25 µg/mL
- MIC [19]: 200 µg/mL
- MIC [20]: 6.25 µg/mL

Compound: CC1=C(C(=O)O)N2C(=O)[C@@H](NC(=O)[C@H](N)c3ccccc3)[C@H]2SC1 [B (Table 14), Cephalexin]
- MIC [21]: 400 µg/mL
- MIC [22]: 400 µg/mL
- MIC [17, 33]: 100 µg/mL
- MIC [20]: 100 µg/mL
- MIC [23]: 25 µg/mL

Compound: gentamicin [B (Table 7)]
- MIC [24]: 3.13 µg/mL
- MIC [17]: 6.25 µg/mL
- growth of the test organism ([25]; gentamicin sulfate 0.001 mcg/ml): +
- growth of the test organism ([25]; gentamicin sulfate 0.003 mcg/ml): +
- growth of the test organism ([25]; gentamicin sulfate 0.006 mcg/ml): +
- growth of the test organism ([25]; gentamicin sulfate 0.01 mcg/ml): +
- growth of the test organism ([25]; gentamicin sulfate 0.025 mcg/ml): +
- growth of the test organism ([25]; gentamicin sulfate 0.05 mcg/ml): -
- MIC [11]: 3.13 µg/mL
- MIC [26]: 100 µg/mL
- MIC [27]: 0.39 µg/mL
- MIC [28]: 12.5 µg/mL
- MIC [29]: 12.5 µg/mL
- MIC [30]: 50 µg/mL
- MIC [5]: 50 µg/mL
- MIC [31]: 50 µg/mL
- MIC [32]: 6.25 µg/mL
